Columns and labels:
Assay in all cases: KINOMEscan
Assay type in all cases: binding
AKT3 = biological target: T1, AKT3 (Homo sapiens, UniProt Q9Y243); settings: AKT3, 1 uM
T1 construct: purchased Ambit KINOMEscan (DiscoverX)
Method in brief: (§1)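 A binding-competition profile was run with every compound fixed at 1 μM; hits were kinases showing inhibited substrate binding.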

BRAF(V600E) = biological target: T2, BRAF(V600E) (Homo sapiens, UniProt P15056, V600E); settings: 1 uM
T2 construct: purchased Ambit KINOMEscan (DiscoverX)
Method in brief: as §1

CDK7 = biological target: T3, CDK7 (Homo sapiens, UniProt P50613); settings: CDK7, 1 uM
T3 construct: purchased Ambit KINOMEscan (DiscoverX)
T3 sequence (P50613 whole entry): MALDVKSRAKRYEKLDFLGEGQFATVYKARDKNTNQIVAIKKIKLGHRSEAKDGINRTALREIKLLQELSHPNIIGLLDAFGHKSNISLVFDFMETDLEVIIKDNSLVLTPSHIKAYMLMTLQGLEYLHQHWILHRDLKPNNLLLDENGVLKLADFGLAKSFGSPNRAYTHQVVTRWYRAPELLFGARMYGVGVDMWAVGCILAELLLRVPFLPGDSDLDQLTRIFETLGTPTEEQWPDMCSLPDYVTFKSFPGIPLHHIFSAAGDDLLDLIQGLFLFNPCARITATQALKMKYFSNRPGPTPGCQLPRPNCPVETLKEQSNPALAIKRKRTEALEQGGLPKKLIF
Method in brief: as §1

CDK8 = biological target: T4, CDK8 (Homo sapiens, UniProt P49336); settings: CDK8, 1 uM
T4 construct: purchased Ambit KINOMEscan (DiscoverX)
Method in brief: as §1

CDKL3 = biological target: T5, CDKL3 (Homo sapiens, UniProt Q8IVW4); settings: CDKL3, 1 uM
T5 construct: purchased Ambit KINOMEscan (DiscoverX)
Method in brief: as §1

CLK3 = biological target: T6, CLK3 (Homo sapiens, UniProt P49761); settings: CLK3, 1 uM
T6 construct: purchased Ambit KINOMEscan (DiscoverX)
Method in brief: as §1

DAPK1 = biological target: T7, DAPK1 (Homo sapiens, UniProt P53355); settings: DAPK1, 1 uM
T7 construct: purchased Ambit KINOMEscan (DiscoverX)
Method in brief: as §1

DRAK2 = biological target: T8, DRAK2 (Homo sapiens, UniProt O94768); settings: DRAK2, 1 uM
T8 construct: purchased Ambit KINOMEscan (DiscoverX)
Method in brief: as §1

ERK2 = biological target: T9, ERK2 (Homo sapiens, UniProt P28482); settings: ERK2, 1 uM
T9 construct: purchased Ambit KINOMEscan (DiscoverX)
Method in brief: as §1

FGFR4 = biological target: T10, FGFR4 (Homo sapiens, UniProt P22455); settings: FGFR4, 1 uM
T10 construct: purchased Ambit KINOMEscan (DiscoverX)
Method in brief: as §1

FLT1 = biological target: T11, FLT1 (Homo sapiens, UniProt P17948); settings: FLT1, 1 uM
T11 construct: purchased Ambit KINOMEscan (DiscoverX)
Method in brief: as §1

FRK = biological target: T12, FRK (Homo sapiens, UniProt P42685); settings: 1 uM
T12 construct: purchased Ambit KINOMEscan (DiscoverX)
Method in brief: as §1

GSK3A = biological target: T13, GSK3A (Homo sapiens, UniProt P49840); settings: for % binding compared to no inhibitor control: GSK3A, 1 uM
T13 construct: purchased Ambit KINOMEscan (DiscoverX)
T13 sequence (P49840 whole entry): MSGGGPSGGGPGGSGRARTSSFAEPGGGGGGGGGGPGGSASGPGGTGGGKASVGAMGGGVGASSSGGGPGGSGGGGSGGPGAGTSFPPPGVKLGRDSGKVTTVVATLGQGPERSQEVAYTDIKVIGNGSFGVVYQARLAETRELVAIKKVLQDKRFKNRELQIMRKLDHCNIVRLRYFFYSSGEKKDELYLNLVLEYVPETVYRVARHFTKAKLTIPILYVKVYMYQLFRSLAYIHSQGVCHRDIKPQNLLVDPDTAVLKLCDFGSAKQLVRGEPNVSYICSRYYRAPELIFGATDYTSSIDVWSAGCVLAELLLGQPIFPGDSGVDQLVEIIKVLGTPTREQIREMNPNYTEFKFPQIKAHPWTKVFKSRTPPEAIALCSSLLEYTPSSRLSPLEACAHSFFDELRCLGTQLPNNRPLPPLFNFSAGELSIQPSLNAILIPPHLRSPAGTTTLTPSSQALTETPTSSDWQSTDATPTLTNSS
Method in brief: as §1

HIPK2 = biological target: T14, HIPK2 (Homo sapiens, UniProt Q9H2X6); settings: for % binding compared to no inhibitor control: HIPK2, 1 uM
T14 construct: purchased Ambit KINOMEscan (DiscoverX)
T14 sequence (Q9H2X6 whole entry): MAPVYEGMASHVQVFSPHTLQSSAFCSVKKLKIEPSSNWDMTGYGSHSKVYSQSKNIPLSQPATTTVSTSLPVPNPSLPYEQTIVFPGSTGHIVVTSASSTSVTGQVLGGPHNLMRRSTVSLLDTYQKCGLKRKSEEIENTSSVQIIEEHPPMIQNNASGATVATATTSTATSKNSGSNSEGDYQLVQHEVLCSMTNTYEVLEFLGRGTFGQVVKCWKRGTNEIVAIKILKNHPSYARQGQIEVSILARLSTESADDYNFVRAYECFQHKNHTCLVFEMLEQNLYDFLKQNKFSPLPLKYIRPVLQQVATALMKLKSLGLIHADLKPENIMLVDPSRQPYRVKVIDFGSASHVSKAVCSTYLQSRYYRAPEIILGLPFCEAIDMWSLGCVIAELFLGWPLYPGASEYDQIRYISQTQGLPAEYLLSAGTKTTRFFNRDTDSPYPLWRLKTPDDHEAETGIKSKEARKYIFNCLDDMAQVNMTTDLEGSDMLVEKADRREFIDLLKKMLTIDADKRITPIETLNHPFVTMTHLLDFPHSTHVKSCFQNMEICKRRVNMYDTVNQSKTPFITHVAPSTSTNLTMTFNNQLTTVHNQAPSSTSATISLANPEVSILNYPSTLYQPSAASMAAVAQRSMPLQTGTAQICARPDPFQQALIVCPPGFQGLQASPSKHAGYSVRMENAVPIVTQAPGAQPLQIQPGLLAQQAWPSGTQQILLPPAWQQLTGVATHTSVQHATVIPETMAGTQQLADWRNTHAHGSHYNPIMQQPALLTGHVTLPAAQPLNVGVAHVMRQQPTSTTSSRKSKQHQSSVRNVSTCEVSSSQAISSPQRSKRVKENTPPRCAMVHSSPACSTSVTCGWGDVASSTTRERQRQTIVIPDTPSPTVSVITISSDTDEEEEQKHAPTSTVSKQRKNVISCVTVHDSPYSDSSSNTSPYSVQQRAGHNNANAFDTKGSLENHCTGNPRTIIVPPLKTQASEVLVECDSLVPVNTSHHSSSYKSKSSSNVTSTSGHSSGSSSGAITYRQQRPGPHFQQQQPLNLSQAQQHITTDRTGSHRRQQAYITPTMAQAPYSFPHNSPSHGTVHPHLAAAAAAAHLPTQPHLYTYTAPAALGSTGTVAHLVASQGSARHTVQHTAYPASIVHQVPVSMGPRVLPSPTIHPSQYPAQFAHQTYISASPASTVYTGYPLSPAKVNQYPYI
Method in brief: as §1

IKK-epsilon = biological target: T15, IKK-epsilon (Homo sapiens, UniProt Q14164); settings: 1 uM
T15 construct: purchased Ambit KINOMEscan (DiscoverX)
Method in brief: as §1

[1] = biological target: T16, JAK2(JH1domain-catalytic) (Homo sapiens, UniProt O60674); settings: 1 uM
T16 construct: JAK2(JH1domain-catalytic); purchased Ambit KINOMEscan (DiscoverX)
Method in brief: as §1

MAP4K4 = biological target: T17, MAP4K4 (Homo sapiens, UniProt O95819); settings: MAP4K4, 1 uM
T17 construct: purchased Ambit KINOMEscan (DiscoverX)
Method in brief: as §1

MAPKAPK5 = biological target: T18, MAPKAPK5 (Homo sapiens, UniProt Q8IW41); settings: MAPKAPK5, 1 uM
T18 construct: purchased Ambit KINOMEscan (DiscoverX)
Method in brief: as §1

MLK3 = biological target: T19, MLK3 (Homo sapiens, UniProt Q16584); settings: MLK3, 1 uM
T19 construct: purchased Ambit KINOMEscan (DiscoverX)
Method in brief: as §1

PCTK1 = biological target: T20, PCTK1 (Homo sapiens, UniProt Q00536); settings: PCTK1, 1 uM
T20 construct: purchased Ambit KINOMEscan (DiscoverX)
Method in brief: as §1

PIK3CA(C420R) = biological target: T21, PIK3CA(C420R) (Homo sapiens, UniProt P42336, C420R); settings: 1 uM
T21 construct: purchased Ambit KINOMEscan (DiscoverX)
Method in brief: as §1

PKN1 = biological target: T22, PKN1 (Homo sapiens, UniProt Q16512); settings: PKN1, 1 uM
T22 construct: purchased Ambit KINOMEscan (DiscoverX)
Method in brief: as §1

PLK2 = biological target: T23, PLK2 (Homo sapiens, UniProt Q9NYY3); settings: PLK2, 1 uM
T23 construct: purchased Ambit KINOMEscan (DiscoverX)
Method in brief: as §1

PRKCE = biological target: T24, PRKCE (Homo sapiens, UniProt Q02156); settings: 1 uM
T24 construct: purchased Ambit KINOMEscan (DiscoverX)
T24 sequence (Q02156 whole entry): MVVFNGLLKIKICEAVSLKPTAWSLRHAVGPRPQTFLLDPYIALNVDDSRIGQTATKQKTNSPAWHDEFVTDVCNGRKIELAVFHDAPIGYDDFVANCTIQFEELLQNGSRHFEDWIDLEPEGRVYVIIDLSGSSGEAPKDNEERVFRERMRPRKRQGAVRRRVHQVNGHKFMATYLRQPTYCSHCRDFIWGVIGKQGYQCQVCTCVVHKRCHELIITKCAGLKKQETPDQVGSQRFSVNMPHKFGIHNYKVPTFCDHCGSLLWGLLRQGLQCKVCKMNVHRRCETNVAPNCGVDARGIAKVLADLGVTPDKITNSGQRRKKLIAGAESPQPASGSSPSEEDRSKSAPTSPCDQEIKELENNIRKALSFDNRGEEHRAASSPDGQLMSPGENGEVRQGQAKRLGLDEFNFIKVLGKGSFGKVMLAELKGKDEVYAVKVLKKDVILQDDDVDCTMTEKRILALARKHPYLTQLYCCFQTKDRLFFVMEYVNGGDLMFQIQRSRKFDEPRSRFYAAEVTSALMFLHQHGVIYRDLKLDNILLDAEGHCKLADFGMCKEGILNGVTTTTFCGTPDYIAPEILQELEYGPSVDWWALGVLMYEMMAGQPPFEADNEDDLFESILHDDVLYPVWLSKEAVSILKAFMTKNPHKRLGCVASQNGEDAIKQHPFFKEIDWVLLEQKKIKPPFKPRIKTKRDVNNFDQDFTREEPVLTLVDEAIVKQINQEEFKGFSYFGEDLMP
Method in brief: as §1

[2] = biological target: T25, RPS6KA1(Kin.Dom.2-C-terminal) (Homo sapiens, UniProt Q15418); settings: 1 uM
T25 construct: RPS6KA1(Kin.Dom.2-C-terminal); purchased Ambit KINOMEscan (DiscoverX)
T25 sequence (Q15418 392-735 limits assumed): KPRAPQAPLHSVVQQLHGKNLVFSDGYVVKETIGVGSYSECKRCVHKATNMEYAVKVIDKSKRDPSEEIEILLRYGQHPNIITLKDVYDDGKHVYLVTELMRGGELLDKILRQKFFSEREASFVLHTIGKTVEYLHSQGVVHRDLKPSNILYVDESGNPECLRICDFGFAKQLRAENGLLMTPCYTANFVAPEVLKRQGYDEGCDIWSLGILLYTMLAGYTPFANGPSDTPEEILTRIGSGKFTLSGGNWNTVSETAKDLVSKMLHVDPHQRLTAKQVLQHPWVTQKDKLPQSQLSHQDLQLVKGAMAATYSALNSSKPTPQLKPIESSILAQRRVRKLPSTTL
Method in brief: as §1

SRPK2 = biological target: T26, SRPK2 (Homo sapiens, UniProt P78362); settings: SRPK2, 1 uM
T26 construct: purchased Ambit KINOMEscan (DiscoverX)
Method in brief: as §1

TNK2 = biological target: T27, TNK2 (Homo sapiens, UniProt Q07912); settings: TNK2, 1 uM
T27 construct: purchased Ambit KINOMEscan (DiscoverX)
T27 sequence (Q07912 whole entry): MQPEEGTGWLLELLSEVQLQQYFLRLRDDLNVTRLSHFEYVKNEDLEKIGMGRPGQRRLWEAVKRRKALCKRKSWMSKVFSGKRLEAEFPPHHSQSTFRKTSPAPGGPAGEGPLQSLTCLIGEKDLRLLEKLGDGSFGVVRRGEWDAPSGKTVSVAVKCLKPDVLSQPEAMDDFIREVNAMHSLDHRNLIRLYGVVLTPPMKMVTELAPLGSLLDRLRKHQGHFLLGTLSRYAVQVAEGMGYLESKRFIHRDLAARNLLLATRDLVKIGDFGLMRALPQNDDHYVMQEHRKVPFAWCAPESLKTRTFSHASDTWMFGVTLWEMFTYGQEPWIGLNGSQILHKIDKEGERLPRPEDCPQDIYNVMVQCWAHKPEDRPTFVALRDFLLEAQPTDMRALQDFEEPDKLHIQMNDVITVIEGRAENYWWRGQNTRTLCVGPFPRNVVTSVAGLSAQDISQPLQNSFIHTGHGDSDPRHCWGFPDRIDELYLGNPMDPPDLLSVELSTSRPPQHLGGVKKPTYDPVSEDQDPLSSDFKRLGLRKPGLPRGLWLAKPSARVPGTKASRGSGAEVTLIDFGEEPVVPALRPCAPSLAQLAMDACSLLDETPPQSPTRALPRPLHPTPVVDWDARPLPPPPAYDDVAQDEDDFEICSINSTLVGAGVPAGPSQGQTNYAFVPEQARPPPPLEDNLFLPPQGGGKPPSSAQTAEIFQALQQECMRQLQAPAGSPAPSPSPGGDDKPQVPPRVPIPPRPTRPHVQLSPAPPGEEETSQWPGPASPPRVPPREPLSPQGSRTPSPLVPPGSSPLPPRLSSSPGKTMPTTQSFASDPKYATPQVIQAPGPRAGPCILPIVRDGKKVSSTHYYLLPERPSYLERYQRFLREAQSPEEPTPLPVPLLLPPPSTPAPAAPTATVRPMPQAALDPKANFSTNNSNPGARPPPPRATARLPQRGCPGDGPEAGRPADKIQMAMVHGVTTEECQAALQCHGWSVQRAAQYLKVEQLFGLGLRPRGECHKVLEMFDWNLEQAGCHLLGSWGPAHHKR
Method in brief: as §1

TRKB = biological target: T28, TRKB (Homo sapiens, UniProt Q16620); settings: 1 uM
T28 construct: purchased Ambit KINOMEscan (DiscoverX)
T28 sequence (Q16620 32-822): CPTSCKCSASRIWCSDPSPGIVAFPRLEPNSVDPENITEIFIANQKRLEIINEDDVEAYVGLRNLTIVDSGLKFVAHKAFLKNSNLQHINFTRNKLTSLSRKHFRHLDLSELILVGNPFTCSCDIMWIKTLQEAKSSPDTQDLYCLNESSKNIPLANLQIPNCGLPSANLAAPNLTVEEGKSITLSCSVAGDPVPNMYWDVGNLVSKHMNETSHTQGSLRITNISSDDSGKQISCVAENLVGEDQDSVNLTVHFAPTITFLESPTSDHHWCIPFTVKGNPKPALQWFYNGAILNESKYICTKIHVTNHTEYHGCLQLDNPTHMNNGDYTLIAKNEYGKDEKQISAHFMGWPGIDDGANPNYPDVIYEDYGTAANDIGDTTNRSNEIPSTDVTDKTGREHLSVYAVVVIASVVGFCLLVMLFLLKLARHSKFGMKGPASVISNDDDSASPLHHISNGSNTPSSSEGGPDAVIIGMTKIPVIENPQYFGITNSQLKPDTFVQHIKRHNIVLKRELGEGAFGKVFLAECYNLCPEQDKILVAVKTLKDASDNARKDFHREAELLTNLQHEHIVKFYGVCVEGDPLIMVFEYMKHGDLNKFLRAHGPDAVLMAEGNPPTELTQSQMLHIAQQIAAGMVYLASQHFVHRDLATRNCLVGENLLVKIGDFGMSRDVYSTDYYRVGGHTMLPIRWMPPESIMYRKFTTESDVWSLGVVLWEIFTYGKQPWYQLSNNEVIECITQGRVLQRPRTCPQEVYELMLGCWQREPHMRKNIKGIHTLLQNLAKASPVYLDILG
Method in brief: as §1

p38-beta = biological target: T29, p38-beta (Homo sapiens, UniProt Q15759); settings: 1 uM
T29 construct: purchased Ambit KINOMEscan (DiscoverX)
Method in brief: as §1

Structure (SMILES) | % binding compared to no inhibitor control (AKT3) | % binding compared to no inhibitor control (BRAF(V600E)) | % binding compared to no inhibitor control (CDK7) | % binding compared to no inhibitor control (CDK8) | % binding compared to no inhibitor control (CDKL3) | % binding compared to no inhibitor control (CLK3) | % binding compared to no inhibitor control (DAPK1) | % binding compared to no inhibitor control (DRAK2) | % binding compared to no inhibitor control (ERK2) | % binding compared to no inhibitor control (FGFR4) | % binding compared to no inhibitor control (FLT1) | % binding compared to no inhibitor control (FRK) | % binding compared to no inhibitor control (GSK3A) | % binding compared to no inhibitor control (HIPK2) | % binding compared to no inhibitor control (IKK-epsilon) | % binding compared to no inhibitor control [1] | % binding compared to no inhibitor control (MAP4K4) | % binding compared to no inhibitor control (MAPKAPK5) | % binding compared to no inhibitor control (MLK3) | % binding compared to no inhibitor control (PCTK1) | further results
COc1ccc(-c2cc3nccn3c(Nc3ncccc3C(N)=O)n2)cc1OC.Cl.Cl [BAY61-3606, 2-[7-(3,4-dimethoxyphenyl)-imidazo [1,2-c]pyrimidin-5-ylamino] nicotinamide dihydrochloride, reference compound] | 90% | 84% | 33% | 62% | 100% | 100% | 66% | 15% | 68% | 100% | 100% | 100% | 17% | 9% | 33% | 90% | 94% | 100% | 77% | 86% | % inhibition ATP binding (GSK3A; GSK3α, KINOMEscan, 1 μM): 83%; % inhibition ATP binding (HIPK2; HIPK2, KINOMEscan, 1 μM): 91%; % binding compared to no inhibitor control (PIK3CA(C420R)): 100%; % binding compared to no inhibitor control (PKN1): 47%; % binding compared to no inhibitor control (PLK2): 50%; % binding compared to no inhibitor control (PRKCE): 30%; % binding compared to no inhibitor control [2]: 50%; % binding compared to no inhibitor control (SRPK2): 53%; % binding compared to no inhibitor control (TNK2): 96%; % binding compared to no inhibitor control (TRKB): 83%; % binding compared to no inhibitor control (p38-beta): 100%
COc1ccccc1Nc1nc(-c2ccc(OC)c(OC)c2)cc2nccn12 [BAY derivative 6] | 100% | 100% | 100% | 100% | 100% | 100% | 76% | 100% | 70% | 100% | 100% | 84% | 100% | 100% | 96% | 13% | 86% | 100% | 100% | 100% | % binding compared to no inhibitor control (PIK3CA(C420R)): 100%; % binding compared to no inhibitor control (PKN1): 100%; % binding compared to no inhibitor control (PLK2): 100%; % binding compared to no inhibitor control (PRKCE): 100%; % binding compared to no inhibitor control [2]: 100%; % binding compared to no inhibitor control (SRPK2): 90%; % binding compared to no inhibitor control (TNK2): 53%; % binding compared to no inhibitor control (TRKB): 74%; % binding compared to no inhibitor control (p38-beta): 80%

Source: article PMC3399817 (PLoS ONE, 2012)
